Assay [1] concerns B16F10 murine melanoma cells. Description: B16F10 tumor growth in C57BL/6 and STING knock-out mice. In kind it is in vivo, C57BL/6 mice and C57BL/6-Tmem173^gt mice. On the procedure:
To confirm that the effects observed in FIGS. 54-58 were translated to anti-tumor activity, C57BL/6 mice and C57BL/6-Tmem173^gt mice were inoculated subcutaneously with 1×10^6 B16F10 murine melanoma cells (n=5 mice per group). Seven, ten, and thirteen days post-inoculation, the mice were injected intratumorally with PBS, exosomes, 20 μg of free 3-3 cAIMPdFSH, or 0.1 μg of 3-3 cAIMPdFSH loaded in PTGFRN-overexpressing exosomes. Tumor volumes were measured daily until day 19, and animals were sacrificed when tumor volume reached 2000 mm^3.

For assay [2], the system named is human peripheral blood mononuclear cells (PBMCs). As to the kind of experiment: IFNβ production in PBMCs treated with exosome-encapsulated or free STING agonist. In kind it is cell-based. Conditions: free STING agonists, human PBMCs overnight. How it is done:
Exosome-encapsulated STING agonist and free STING agonist were tested for activity in human peripheral blood mononuclear cells (PBMCs). PBMCs were isolated from fresh human blood by centrifugation over a layer of Lymphoprep at 1000×g for 15 minutes. The resulting buffy coat was washed in PBS and counted. PBMCs were plated in 96-well U-bottom plates. Titrations of the exosome-encapsulated (Exo-STING agonist) or free STING agonist were prepared in a separate U-bottom plate to perform dose-response studies. The exosome-encapsulated or free STING agonist was added to the PBMCs and incubated at 37° C. overnight. General activation of PBMCs by the STING agonist was detected by measuring the amount of IFNβ in the supernatant. […] To understand which cell types in PBMCs are differentially affected by Exo-STING agonist, monocyte and dendritic cell activation was measured. […] Monocytes were robustly activated by the STING agonist alone with over 90% becoming activated at micromolar concentrations of the agonist. […]
HEK293SF cells overexpressing PTGFRN were grown in shake flasks and the resulting exosomes were purified by Optiprep™ density gradient ultracentrifugation as described in the Methods. […] Loading was quantified as described in Example 1. […] Activation of PBMCs by the STING agonists was detected by measuring the amount of IFNβ in the supernatant. […]

Assay [3] has as its system B16F10 murine melanoma cells. As to the kind of experiment: Advanced B16F10 melanoma tumor growth. In kind it is in vivo, C57BL/6 mice. Conditions: days 10, 13, 16. How it is done:
Treatment was started when tumor volume reached ˜ 50 mm3. To test the activity in advanced tumor, C57BL/6 mice were inoculated subcutaneously with 1×10^6 B16F10 murine melanoma cells (n=5 mice per group) and waited until tumor volume reached ˜100 mm^3. Ten, thirteen, and sixteen days post-inoculation, the mice were injected intratumorally with exosomes, 30 μg of free 3-3 cAIMPdFSH, 0.3 μg of free 3-3 cAIMPdFSH, 0.1 μg of 3-3 cAIMPdFSH loaded in PTGFRN-overexpressing exosomes, or 0.3 μg of 3-3 cAIMPdFSH loaded in PTGFRN-overexpressing exosomes. Tumor volumes were measured daily until day 28, and animals were sacrificed when tumor volume reached 2000 mm^3.

A further assay relates to OVA-reactive splenocytes. Description: IFNγ ELISpot of splenocytes with OVA peptide SIINFEKL
Type of assay: in vivo, C57BL/6 mice. How it is done:
As an orthogonal method to measure antigen-specific immunity, IFNγ-expression was measured by ELISpot according to standard protocols (ImmunoSpot®; Cellular Technology Limited). Splenocytes were homogenized to a single-cell suspension and plated (200,000 cells/well) in a plate coated with an anti-IFNγ antibody. The OVA peptide SIINFEKL was added to the cells for 18 hours to induce IFNγ production, cells were washed from the plate, and plate-bound IFNγ was detected using an orthogonal antibody (FIG. 41D). The total number of reactive spots per plate were counted and compared across groups using ImmunoSpot® software (Cellular Technology Limited).

The values that follow come from patent US20210322327A1, “EXTRACELLULAR VESICLES COMPRISING STING-AGONIST” (Codiak BioSciences, Inc., priority 2018, published 2021).

With `Nc1ncnc2c1ncn2[C@@H]1O[C@@H]2COP(=O)(S)O[C@H]3[C@@H](F)[C@H](n4cnc5c(=O)[nH]cnc54)O[C@@H]3COP(O)(=S)O[C@H]2[C@H]1F` (some centres unmarked) [3-3 cAIMPdFSH, 3′3′-cAIMPdFSH], the tumor regression entry in assay [1] (C57BL/6-Tmem173^gt mice, 20 μg free) was “no tumor regression was observed”; in assay [1] (C57BL/6 mice, free, printed 20 g, days 7, 10, 13) it was “dramatically improved tumor regression”. Also, the IFNβ induction entry in assay [2] is on record as “induced IFNβ to a similar extent”. For the same compound, the “tumor growth compared to exosomes control” value in assay [3] (0.3 μg free, start ~100 mm^3) is given as “tumor growth was not affected”. In addition, the “tumor burden compared to exosomes control” value in assay [3] (30 μg free) was “great reduction of tumor burden”.
As to `Nc1ncnc2c1ncn2[C@@H]1O[C@@H]2COP(O)(=S)O[C@@H]3C(O)[C@@H](COP(O)(=S)O[C@H]2[C@H]1O)O[C@H]3n1cnc2c(N)ncnc21` (some centres unmarked) [ML RR-S2 CDA], the “OVA-reactivity (IFNγ spots)” value in the assay with OVA-reactive splenocytes (0.2 μg IP) was “very low levels of OVA-reactivity”; with OVA-reactive splenocytes (20 μg IP), “highly reactive”. Besides, in assay [2], the IFNβ induction entry is “induced IFNβ to a similar extent”.
